Drawing on patent publication US12275733B2, “Substituted pyrido[3,4-b]indoles for the treatment of cartilage disorders” (Sanofi, priority 2016, dated 2025), this text covers EC50 and Emax for 36 molecules.

This test concerns ATDC5 cells. The experiment in a line: Chondrogenesis activity assay in ATDC5 cells (collagen type II induction, immunofluorescence). The test is classed as cell-based, mouse. The settings on record: Mus musculus; for EC50: collagen type II induction in ATDC5 cells, concentration reaching 50% of maximum induction; for Emax: maximum percent induction of collagen type II relative to internal reference compound at 10 μM, ATDC5 cells. Put shortly: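 Collagen type II was stained in fixed, permeabilized cells with an Alexa Fluor 488 secondary and measured by high-content fluorescence imaging. ATDC5 cells had 4 days at 37 °C in insulin-supplemented differentiation medium with compound, typically 40 nM–10 μM, 0.1% DMSO. DMSO wells and a 10 μM internal reference compound were used for normalization.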

SMILES strings stand for the structures. Some results are limits rather than exact numbers.

Regarding `CCn1c2c(-c3ccncc3)cc(Cl)cc2c2ccnc(C)c21` [Example 125, 6-Chloro-9-ethyl-1-methyl-8-pyridin-4-yl-9H-pyrido[3,4-b]indole], the 50% effective concentration (EC50) came out at 1000 nM and the Emax is above 80%.
Taken in the same sequence, the figures for `FC(F)(F)Cn1c2cnccc2c2cc(Cl)cc(-c3cncnc3)c21` [Example 126, 6-Chloro-8-pyrimidin-5-yl-9-(2,2,2-trifluoro-ethyl)-9H-pyrido[3,4-b]indole] were above 10000 nM and 20 to 50%.
In the same order, the values of `FC(F)(F)Cn1c2cnccc2c2cc(Cl)cc(-c3ccncc3)c21` [Example 127, 6-Chloro-8-pyridin-4-yl-9-(2,2,2-trifluoro-ethyl)-9H-pyrido[3,4-b]indole] are 380 nM and 50 to 80%.
For the molecule `FC(F)(F)Cn1c2cnccc2c2cc(Cl)cc(-c3ccccc3)c21` [Example 128, 6-Chloro-8-phenyl-9-(2,2,2-trifluoro-ethyl)-9H-pyrido[3,4-b]indole], the response was half-maximal at 3900 nM (EC50) and the Emax was below 20%.
Taken in the same sequence, the figures for `FC(F)(F)Cn1c2cnccc2c2cc(Cl)cc(-c3ccc(Cl)cc3)c21` [Example 129, 6-Chloro-8-(4-chloro-phenyl)-9-(2,2,2-trifluoro-ethyl)-9H-pyrido[3,4-b]indole] were 860 nM and above 80%.
Taken in the same sequence, the figures for `Cc1nccc2c1[nH]c1c(-c3ccncc3)cc(Cl)cc12` [Example 130, 6-Chloro-1-methyl-8-pyridin-4-yl-9H-pyrido[3,4-b]indole] were 380 nM and above 80%.
`CCn1c2cnccc2c2cc(Cl)cc(-c3ccc(Cl)cc3)c21` [Example 131, 6-Chloro-8-(4-chloro-phenyl)-9-ethyl-9H-pyrido[3,4-b]indole]: the EC50 was determined as 780 nM and the Emax was above 80%.
In the same order, the values of `Nc1ncc(-c2cc(Cl)cc3c4ccncc4n(CC(F)(F)F)c23)cn1` [Example 132, 5-[6-Chloro-9-(2,2,2-trifluoro-ethyl)-9H-pyrido[3,4-b]indol-8-yl]-pyrimidin-2-ylamine] are 4500 nM and 20 to 50%.
In the same order, the values of `CCn1c2cnccc2c2cc(Cl)cc(-c3cncnc3)c21` [Example 133, 6-Chloro-9-ethyl-8-pyrimidin-5-yl-9H-pyrido[3,4-b]indole] are above 10000 nM and 20 to 50%.
Taken in the same sequence, the figures for `FC(F)(F)Cn1c2cnccc2c2cc(Cl)cc(-c3ccc(Cl)s3)c21` [Example 134, 6-Chloro-8-(5-chloro-thiophen-2-yl)-9-(2,2,2-trifluoro-ethyl)-9H-pyrido[3,4-b]indole] were above 10000 nM and below 20%.
The molecule `Cn1cc(-c2cc(Cl)cc3c4ccncc4n(CC(F)(F)F)c23)cn1` [Example 135, 6-Chloro-8-(1-methyl-1H-pyrazol-4-yl)-9-(2,2,2-trifluoro-ethyl)-9H-pyrido[3,4-b]indole] displayed a concentration giving a half-maximal response (EC50) of 330 nM and an Emax of 50 to 80%.
`FC(F)(F)Cn1c2cnccc2c2cc(Cl)cc(-c3cc(-c4ccccc4)no3)c21` [Example 136, 6-Chloro-8-(3-phenyl-isoxazol-5-yl)-9-(2,2,2-trifluoro-ethyl)-9H-pyrido[3,4-b]indole] gave an EC50 of 4100 nM and a maximum response (Emax) of 50 to 80%.
As to `CC(C)Cn1cc(-c2cc(Cl)cc3c4ccncc4n(CC(F)(F)F)c23)cn1` [Example 137, 6-Chloro-8-(1-isobutyl-1H-pyrazol-4-yl)-9-(2,2,2-trifluoro-ethyl)-9H-pyrido[3,4-b]indole], it took 1400 nM to reach a half-maximal effect (EC50) and the Emax was 20 to 50%.
In the same order, the values of `Cc1nn(C)c(C)c1-c1cc(Cl)cc2c3ccncc3n(CC(F)(F)F)c12` [Example 138, 6-Chloro-9-(2,2,2-trifluoro-ethyl)-8-(1,3,5-trimethyl-1H-pyrazol-4-yl)-9H-pyrido[3,4-b]indole] are above 10000 nM and below 20%.
In the case of `FC(F)(F)Cn1c2cnccc2c2cc(Cl)cc(-c3cnn4ccccc34)c21` [Example 139, 6-Chloro-8-pyrazolo[1,5-a]pyridin-3-yl-9-(2,2,2-trifluoro-ethyl)-9H-pyrido[3,4-b]indole], the EC50 was above 10000 nM and the maximal effect (Emax) is below 20%.
For the molecule `Cc1cc(-c2cc(Cl)cc3c4ccncc4n(CC(F)(F)F)c23)n(C)n1` [Example 140, 6-Chloro-8-(2,5-dimethyl-2H-pyrazol-3-yl)-9-(2,2,2-trifluoro-ethyl)-9H-pyrido[3,4-b]indole], the concentration giving a half-maximal response (EC50) worked out at 910 nM and the maximum response (Emax) fell in the range of 20 to 50%.
As for `Clc1cc(-c2cncnc2)c2[nH]c3cnccc3c2c1` [Example 141, 6-Chloro-8-pyrimidin-5-yl-9H-pyrido[3,4-b]indole], the EC50 is above 10000 nM and the maximum response (Emax) was below 20%.
Taken in the same sequence, the figures for `CCn1c2cnccc2c2cc(Cl)cc(-c3ccc(OC)cc3)c21` [Example 142, 6-Chloro-9-ethyl-8-(4-methoxy-phenyl)-9H-pyrido[3,4-b]indole] were 520 nM and above 80%.
In the same order, the values of `CCn1c2cnccc2c2cc(Cl)cc(-c3ccc(C)cc3)c21` [Example 143, 6-Chloro-9-ethyl-8-p-tolyl-9H-pyrido[3,4-b]indole] are 970 nM and 20 to 50%.
In the same order, the values of `FC(F)(F)Cn1c2cnccc2c2cc(Cl)cc(-c3cn[nH]c3)c21` [Example 144, 6-Chloro-8-(1H-pyrazol-4-yl)-9-(2,2,2-trifluoro-ethyl)-9H-pyrido[3,4-b]indole] are 580 nM and below 20%.
Molecule `CCn1c2cnccc2c2cc(Cl)cc(-c3ccccc3Cl)c21` [Example 145, 6-Chloro-8-(2-chloro-phenyl)-9-ethyl-9H-pyrido[3,4-b]indole] registered an EC50 of 480 nM and a maximal response (Emax) below 20%.
Taken in the same sequence, the figures for `CCn1c2cnccc2c2cc(Cl)cc(-c3cccc(OC)c3)c21` [Example 146, 6-Chloro-9-ethyl-8-(3-methoxy-phenyl)-9H-pyrido[3,4-b]indole] were 41 nM and below 20%.
The molecule `CCn1c2c(-c3ccc(OC)cc3)cc(Cl)cc2c2ccnc(C)c21` [Example 147, 6-Chloro-9-ethyl-8-(4-methoxy-phenyl)-1-methyl-9H-pyrido[3,4-b]indole] displayed an EC50 of 840 nM and an Emax above 80%.
Taken in the same sequence, the figures for `CCn1c2c(-c3ccc(Cl)cc3)cc(Cl)cc2c2ccnc(C)c21` [Example 148, 6-Chloro-8-(4-chloro-phenyl)-9-ethyl-1-methyl-9H-pyrido[3,4-b]indole] were 46 nM and above 80%.
The molecule `Cc1ccc(-c2cc(Cl)cc3c2[nH]c2c(C)nccc23)cc1` [Example 150, 6-Chloro-1-methyl-8-p-tolyl-9H-pyrido[3,4-b]indole] showed an EC50 of 510 nM and a maximal effect (Emax) above 80%.
In the same order, the values of `Cc1nccc2c1[nH]c1c(-c3cnn(C)c3)cc(Cl)cc12` [Example 151, 6-Chloro-1-methyl-8-(1-methyl-1H-pyrazol-4-yl)-9H-pyrido[3,4-b]indole] are 540 nM and 50 to 80%.
Take `COC(=O)c1cc2c([nH]c3c(-c4ccc(OC)cc4)cc(Cl)cc32)c(C)n1` [Example 152, 6-Chloro-8-(4-methoxy-phenyl)-1-methyl-9H-pyrido[3,4-b]indole-3-carboxylic acid methyl ester]: the EC50 worked out at 360 nM and the Emax is below 20%.
On to `CCc1nccc2c1[nH]c1c(-c3ccc(OC)cc3)cc(Cl)cc12` [Example 153, 6-Chloro-1-ethyl-8-(4-methoxy-phenyl)-9H-pyrido[3,4-b]indole], for which the EC50 was found to be 4500 nM and the maximum response (Emax) was 50 to 80%.
In the same order, the values of `Cc1nccc2c1[nH]c1c(-c3cnc(N)nc3)cc(Cl)cc12` [Example 154, 5-(6-Chloro-1-methyl-9H-pyrido[3,4-b]indol-8-yl)-pyrimidin-2-ylamine] are 8800 nM and 20 to 50%.
`COc1ccc(-c2cc(Cl)cc3c2[nH]c2c(C(F)(F)F)nccc23)cc1` [Example 155, 6-Chloro-8-(4-methoxy-phenyl)-1-trifluoromethyl-9H-pyrido[3,4-b]indole] came in with an EC50 above 3300 nM and a maximal response (Emax) below 20%.
In turn, `Cc1nccc2c1[nH]c1c(-c3cnc(-n4cccc4)nc3)cc(Cl)cc12` [Example 156, 6-Chloro-1-methyl-8-(2-pyrrol-1-yl-pyrimidin-5-yl)-9H-pyrido[3,4-b]indole] gave a concentration for a half-maximal effect (EC50) of 1500 nM and a maximal effect (Emax) below 20%.
In the same order, the values of `CNc1ncc(-c2cc(Cl)cc3c2[nH]c2c(C)nccc23)cn1` [Example 157, [5-(6-Chloro-1-methyl-9H-pyrido[3,4-b]indol-8-yl)-pyrimidin-2-yl]-methyl-amine] are above 10000 nM and 20 to 50%.
The molecule `Cc1nccc2c1[nH]c1c(-c3ccc(Cl)c(C#N)c3Cl)cc(Cl)cc12` [Example 158] yielded a 50% effective concentration (EC50) of 1900 nM and an Emax above 80%.
In the same order, the values of `CC(C)n1cc(-c2cc(Cl)cc3c4ccncc4n(CC(F)(F)F)c23)cn1` [Example 160, 6-Chloro-8-(1-isopropyl-1H-pyrazol-4-yl)-9-(2,2,2-trifluoro-ethyl)-9H-pyrido[3,4-b]indole] are above 10000 nM and below 20%.
The molecule `CCCn1cc(-c2cc(Cl)cc3c4ccncc4n(CC(F)(F)F)c23)cn1` [Example 161, 6-Chloro-8-(1-propyl-1H-pyrazol-4-yl)-9-(2,2,2-trifluoro-ethyl)-9H-pyrido[3,4-b]indole] displayed a half-maximal effective concentration (EC50) of 2000 nM and an Emax above 80%.
Taken in the same sequence, the figures for `FC(F)(F)Cn1c2cnccc2c2cc(Cl)cc(-c3cnn(Cc4ccccc4)c3)c21` [Example 162, 8-(1-Benzyl-1H-pyrazol-4-yl)-6-chloro-9-(2,2,2-trifluoro-ethyl)-9H-pyrido[3,4-b]indole] were 590 nM and above 80%.

One may read the EC50 as the concentration at which the effect is half-maximal. High values mean lower potency in that assay, low ones higher potency in that assay. In general, Emax refers to the size of the effect at its maximum, as opposed to the concentration needed.
